From patent US20240101963A1, “SC-BETA CELLS AND COMPOSITIONS AND METHODS FOR GENERATING THE SAME” (President and Fellows of Harvard College, priority 2013, published 2024)

What was measured:
Format in all cases: cell-based, human
[1] = system: SC-β cells; test: Insulin secretion of plated SC-β cells treated with anti-diabetic drugs in 2 and 20 mM glucose; conditions: SC-β cells treated with drug; trend
Experimental: FIG. 16A is a schematic illustration of the utility of SC-β cells for treating diabetes or screening drugs to improve function or replication. FIG. 16B is a table listing diabetic drugs investigated and their general therapeutic category. FIG. 16C is a graph showing ELISA measurements of secreted human insulin from plated SC-β cells treated with the indicated drugs in 2 and 20 mM glucose. Indicated p values compare the insulin value in 20 mM glucose between the drug and the control. FIG. 16D is an immunofluorescence image of dispersed and plated SC-β cells stained with DAPI (blue), C-peptide (green), and Ki67 (red) without treatment. FIG. 16E is an immunofluorescence image of dispersed and plated SC-β cells stained with DAPI (blue), C-peptide (green), and Ki67 (red) treated with prolactin for 48 hours. […] FIG. 16G is a graph illustrating fasting blood glucose measurements of Akita mice transplanted with SC-β cells (n=6) or PH cells (n=6). *p<0.05 comparing the two cell groups on the same day. FIG. 16H is a graph illustrating blood glucose measurements from progressively diabetic Akita mice transplanted with SC-β cells or PH cells. Measurements were taken before (white bars) and 20 min after (black bars) a glucose injection of mice transplanted 2 weeks prior. Glucose measurements were saturated at 550 mg/dL. *p<0.05 comparing the two cell groups at the same time post glucose injection. FIG. 16I is a graph showing ELISA measurements of human insulin from the serum of Akita mice 20 min after a glucose injection. Mice were challenged with glucose 2 weeks post transplantation. *p<0.05 comparing the two cell groups. Scale bar=50 μm.
The inventors first tested whether SC-β cells could respond to existing anti-diabetic drugs from several different classes (FIG. 16B). LY2608204 is glucokinase activator in clinical trials while liraglutide, tolbutamide, and nateglinide are examples of GLP-1 agonists and secretagogues (sulfonylureas and meglitinides), respectively, that have been used clinically (Matschinsky, 2009; Modi, 2007; Vetere et al., 2014).

[2] = system: hPSC; test: Modified differentiation protocol Steps 3-6: cell survival and marker expression; conditions: for cell survival: Steps 3-5
Source text: (Watanabe, K. et al., Nature Biotechnology 25, 681-686 (2007)).
(Watanabe et al.) Examples of Rock inhibitors include, but are not limited to, Y-27632, Fasudil/HA1077, and H-1152.
In addition to treating the cells with a Rocki inhibitor, the cells in Steps 3-4 can be treated with ActivinA alone or in combination with Nicotinamide.
Staurosporine is known to be an activator of neuronal, glial, and stem cell-like neurosphere differentiation and is also thought to induce apoptosis. (Schumacher, et al., Mol. Cell. Neurosci. 2003; 23(4): 669-680).

[3] = system: SC-β cells; test: GSIS of SC-β cells after adding additional factors to CMRL media at last differentiation step (Stage 6); conditions: factor added to CMRL media containing Alk5 inhibitor and T3; versus CMRL only, CMRL+Alk5i+T3 or S3+Alk5i+T3
Source text: To induce the in vitro maturation of at least some of the Pdx1-positive, NKX6-1-positive, insulin-positive endocrine cells into SC-β cells, the Pdx1-positive, NKX6-1-positive, insulin-positive endocrine cells are maintained in a suitable culture medium for a sufficient period of time. […] Adding additional factors to the CMRL media at the last step of differentiation (Stage 6) (FIG. 14A), however, was also found to generate a better glucose stimulated insulin secretion (GSIS) response by SC-β cells as measured by either stimulation index between high and low glucose challenges or by the amount of insulin released. Such additional factors may include, but are not limited to, Sant1, XXI, and SSP. The stimulation index, as calculated by the ratio of insulin secreted in high glucose (15 mM) to low glucose (2.5 mM), was greater for the SC-β cells maintained in a CMRL media containing Alk5 inhibitor, T3 hormone and either Sant1, XXI or SSP than those SC-β cells maintained in only CMRL media, CMRL media containing Alk5 inhibitor and T3 hormone, or S3 media containing Alk5 inhibitor and T3 hormone (FIG. 14B). Furthermore, the amount of insulin secreted was greater for the SC-β cells maintained in a CMRL media containing Alk5 inhibitor, T3 hormone and either Sant1, XXI or SSP than those SC-β cells maintained in only CMRL media, CMRL media containing Alk5 inhibitor and T3 hormone, or S3 media containing Alk5 inhibitor and T3 hormone (FIG. 14C).
Alternatively, Days 21-35: CMRLS+10 μM Alk5i II+1 μM T3+Sant1.
Alternatively, Days 21-35: CMRLS+10 μM Alk5i II+1 μM T3+XXI.
Alternatively, Days 21-35: CMRLS+10 μM Alk5i II+1 μM T3+SSP.

[4] = system: SC-β cells; test: β cell replication: C-peptide/Ki67 staining of SC-β cells; conditions: SC-β cells cultured with prolactin (48 hours); untreated 0.20±0.08%
Source text: Next the inventors tested whether SC-β cells could model β cell replication. Increasing a patient's β cell mass may improve glycemic control by producing more insulin in total without needing to increase the amount of insulin produced per β cell. To date, few if any drugs that have promoted β cell replication in rodent or cell line models have been translated to human β cells. […] The inventors tested whether treatment with prolactin could increase β cell replication in a SC-β cell population. After culturing SC-β cells with prolactin, cells were stained and fixed for C-peptide and the proliferation marker Ki67 (FIGS. 16D and 16E). Like primary human β cells, the baseline number of Ki67+ proliferating SC-β cells was very low (0.20±0.08% Ki67+/C-peptide+) (FIG. 16F).
Cells were dispersed and plated onto 96 well plates. After one day of culture, cells were washed in PBS and fixed in 4% PFA for 20 min at RT. Following 3 washes with PBS, cells were blocked for 1 hour at RT in PBS+0.1% Triton X-100+5% donkey serum. […] The percentage of target cell-types was quantified using the Array Scan Cellomics high-content screening system. Here 30 images were acquired per well and quantified. Cells labeled by antibody staining and total cell number (based on DAPI nuclei staining) were quantified to obtain percentages of target cell types.

| Molecule | insulin secretion in vitro following a glucose challenge [1] | amount of insulin secreted [3] | stimulation index, ratio of insulin secreted in high glucose (15 mM) to low glucose (2.5 mM) [3] | further results |
| --- | --- | --- | --- | --- |
| O=C(Nc1ncc(SCCN2CCCC2)s1)[C@]1(c2ccc(S(=O)(=O)C3CC3)cc2)C[C@H]1C1CCCCC1 [LY2608204] | increasing insulin secretion |  |  |  |
| NC(=O)c1cccnc1 [Nicotinamide] |  |  |  | cell survival [2]: improve cell survival |
| Cc1nn(-c2ccccc2)c(C)c1/C=N/N1CCN(Cc2ccccc2)CC1 [Sant1] |  | greater | greater |  |
| C[C@H](NC(=O)Cc1cc(F)cc(F)c1)C(=O)N[C@H]1N=C(c2ccccc2)c2ccccc2N(C)C1=O [XXI] |  | greater | greater | NeuroD1+ population ([2]; XXI added to medium with Alk5i and T3 at Steps 5 and 6): increase |
| CC(C)[C@H]1CC[C@H](C(=O)N[C@H](Cc2ccccc2)C(=O)O)CC1 [nateglinide] | increasing insulin secretion |  |  |  |
| CN[C@@H]1C[C@H]2O[C@@](C)([C@@H]1OC)n1c3ccccc3c3c4c(c5c6ccccc6n2c5c31)C(=O)NC4 [staurosporine] |  | greater | greater | percentage of ChromograninA ([2]; Steps 5-6): increasing; percentage of NKX6-1.C-peptide+ cells ([2]; Steps 5-6): increasing |
| CCCCNC(=O)NS(=O)(=O)c1ccc(C)cc1 [tolbutamide] | increasing insulin secretion |  |  |  |
| Activin A: growth factor from the TGF-β superfamily (protein, UniProt P08476 311-426, looked up, Inhibin beta A chain, growth factor from the TGF-β superfamily) Inhibin beta A chain: GLECDGKVNICCKKQFFVSFKDIGWNDWIIAPSGYHANYCEGECPSHIAGTSGSSLSFHSTVINHYRMRGHSPFANLKSCCVPTKLRPMSMLYYDDGQNIIKKDIQNMIVEECGCS |  |  |  | cell survival [2]: improve cell survival |
| prolactin: hormone tested for increasing β cell replication (protein, UniProt P01236 29-227, looked up) Prolactin: LPICPGGAARCQVTLRDLFDRAVVLSHYIHNLSSEMFSEFDKRYTHGRGFITKAINSCHTSSLATPEDKEQAQQMNQKDFLSLIVSILRSWNEPLYHLVTEVRGMQEAPEAILSKAVEIEEQTKRLLEGMELIVSQVHPETKENEIYPVWSGLPSLQMADEESRLSAYYNLLHCLRRDSHKIDNYLKLLKCRIIHNNNC |  |  |  | Ki67+/C-peptide+ cells after prolactin treatment [4]: 0.39±0.08% |
